According to patent US20210332139A1, “MODULATION OF LEUKOCYTE ACTIVITY IN TREATMENT OF NEUROINFLAMMATORY DEGENERATIVE DISEASE” (Leuvas Therapeutics, priority 2013, published 2021):

What was measured:
human primary PMNs = assay: Static adhesion of human primary PMNs to ICAM-1 with signaling inhibitors; type: cell-based; details: for Adherent hPMNs to ICAM-1, n.t. (resting), Mean / Adherent hPMNs to ICAM-1, fMLP, Mean / Adherent hPMNs to ICAM-1, Aβ oligo, Mean: 30 min; for Adherent hPMNs to ICAM-1, fMLP, Mean: then 50 nM fMLP 1 min; for Adherent hPMNs to ICAM-1, Aβ oligo, Mean: then 10 μM Aβ 1 min; for Blockade of Aβ-induced adhesion of human neutrophils: result in words
Experimental: As a model system, human primary PMNs were isolated form healthy donors stimulated to very rapid adhesion to purified human ICAM-1, ligand for the β2 integrins LFA-1 and Maci. fMLP (the classical chemoattractant) was the positive control. […] PMNs were treated for 30 min. with different concentrations of inhibitors followed by stimulation for 1 min with 50 nM fMLP or with 10 μM Aβ. The number of adherent cells was quantified by computer-assisted evaluation. Statistical analysis was SD.

human neutrophils [1] = assay: Isoluminol chemiluminescence ROS assay, human neutrophils; type: cell-based; details: result in words
Experimental: One of the mechanisms of neuronal damage by beta-amyloid in Alzheimer's disease is the generation of reactive oxygen species (ROS). We determined whether Aβ1-42 oligomers induce ROS production in neutrophils by using a chemiluminescence assay.
(§1) Isoluminol-based chemiluminescence assays were performed in HGCa in the presence of horseradish peroxidase (HRP) and isoluminol (both from Sigma-Aldrich) in a temperature-controlled Multilabel Count Victor X5 (Perkin Elmer). Assays were run in dark 96 well plates precoated with 250 μg/ml human fibrinogen in HGCa containing (final concentration): 100 μM isoluminol and 8 U/ml HRP. After addition of 1×10^5 human neutrophils or 7.5×10^5 mouse neutrophils, plates were left at 37° C. for 5-10 min and the reaction started by addition of the stimulus. Light emission was recorded every minute.
(§2) We used the chemotactic peptide fMLP as positive control. […] Data are mean+/−SD for three independent experiments.

neutrophils = assay: Rapid adhesion of neutrophils, soluble versus fibrillary Aβ1-42; type: cell-based; details: 30 μM, mean+/−SD
Source text: Although two-times less efficient than the soluble form, fibrillary Aβ triggered a significant increase of rapid neutrophil adhesion on both ICAM-1 and fibrinogen (Table 8; data are expressed as the mean+/−SD of bound cells in 0.2 mm^2 from three independent experiments made in duplicate).

[2] = tested on: Bend.3 endothelial cell line; assay: Adhesion molecule expression on Bend.3 endothelial cells (immunofluorescence); type: cell-based, mouse; set-up: key: −: VCAM-1 and selectins were not expressed (indicated by -, Table 2); constitutively expressed at low levels on endothelial cells (indicated by +/−, some vessels were positive for ICAM-1, Table 2); an increase of ICAM-1 expression (indicated by +, Table 2); details: Bend.3 cells, 25 U/ml TNFα, 18 h, positive control
Experimental: We performed in vitro experiments to study the effect of soluble Aβ1-42 oligomers on the endothelial cell line Bend.3, derived from mouse cerebral cortex purchased by ATCC& Cell Biology Collection (CRL-2299TM).
Briefly, Bend.3 were cultured at a concentration of 20×10^3/ml on a glass coverslip in 24-well plates containing DMEM supplemented with 10% Fetal Calf Serum (FCS). Cells were stimulated with 10 μM Aβ 1-42, for 18 h in DMEM with 1% FCS. […] positive control, cells were treated with 25 U/ml of TNFα for 18 h in DMEM with 1% FCS. Bend.3 were rinsed with PBS and fixed with 4% PFA for 10 minutes. Cells were washed with PBS incubated with blocking buffer for 1 h at RT° C. Primary antibodies were diluted in 1% Bovine Serum Albumin (BSA) PBS. Cells were incubated overnight at 4° C. with 50 μg/ml anti-VCAM (hybridoma MK2.7), 10 μg/ml anti-ICAM (hybridoma YN1.7), 0.5 μg/ml anti-CD31 (370700, Invitrogen), 5 μg/ml anti-E-selectin (hybridoma RME-1) and 1.5 μg/ml anti-P-selectin (CD62P, BD Pharmigen). The day after, cells were rinsed 2 times with PBS and then incubated with 7.5 μg/ml biotinylated secondary antibody (rabbit anti-rat, T0226, VectorLab) for 1 h at RT° C. Cells were rinsed 2 times with PBS and incubated with 25 μg/ml Avidin-TexasRed (A2006, Vector Lab) for 1 h at RT° C. in the dark. After rinsing in PBS, cells were incubated with 1 μg/ml Dapi (D9542, Sigma-Aldrich, St. Louis, Mo.), for 5 minutes in the dark. Finally, glass coverslip was transferred on glass slides and mounted with Dako medium (S3023, DAKO NORTH AMERICA, Carpinteria, Calif.). Glass slides were kept at 4° C. in the dark and acquired by LEICA fluorescence microscopy (DM6000B, LEICA, Germany).
We analyzed the expression of VCAM-1, ICAM-1, E- and P-selectin on Bend.3 after Aβ1-42 oligomers stimulation. TNF-α stimulation, which is well known to up-regulate the adhesion molecules expression, was used as positive control. We evaluated a dose-response effect of Aβ1-42 soluble oligomers on Bend.3 cells, ranging from 1 to 10 μM after 6 or 18 hours of treatment. After 18 h of treatment with 10 μM Aβ we observed a significant up-regulation of […] compared to non-stimulated control cells (CTRL) (Table 2). […] ICAM-1 was constitutively expressed at low levels on endothelial cells (indicated by +/−, some vessels were positive for ICAM-1, Table 2), but 18 h treatment with Aβ1-42 led to an increase of ICAM-1 expression (indicated by +, Table 2).

mouse neutrophils = assay: Isoluminol chemiluminescence ROS assay, mouse neutrophils; type: cell-based; details: mean+/−SD
Experimental: as §1, §2
Data are mean+/−SD counts per second.

human neutrophils [3] = assay: Rapid human neutrophil adhesion to ICAM-1, inhibition by bocMLF and PTx; type: cell-based
Experimental: It is known that one of the receptors for Aβ is the receptor for fMLP, formylpeptide chemotactic receptor (FPR). To evaluate the contribution of this GPCR receptor on Aβ-dependent neutrophil adhesion, we inhibited its function using boc-MLF, a formyl-peptide chemotactic receptor antagonist. Human neutrophils were incubated for 2 minutes with buffer (control) or with oligomeric Aβ. 0.1 μM fMLP was used as a positive control. Values are expressed as the mean counts of bound cells in 0.2 mm^2 from three independent experiments in duplicate. Error bars represent SD. […] To exclude the possibility that rapid adhesion triggering was a consequence of a generic plasma membrane alteration due to the lipophilic nature of Aβ, we evaluated rapid adhesion in lymphocytes, which are known to lack fMLP receptors.

| Compound | Blockade of Aβ-induced adhesion of human neutrophils (human primary PMNs) | Adherent hPMNs to ICAM-1, n.t. (resting), Mean (human primary PMNs; inhibitor 100 μM) | Adherent hPMNs to ICAM-1, fMLP, Mean (human primary PMNs; inhibitor 100 μM) | Adherent hPMNs to ICAM-1, Aβ oligo, Mean (human primary PMNs; inhibitor 100 μM) | other results |
| --- | --- | --- | --- | --- | --- |
| N#C/C(=C/c1ccc(O)c(O)c1)C(=O)NCc1ccccc1 [AG490] | can block |  |  |  | Adherent hPMNs to ICAM-1, n.t. (resting), Mean (human primary PMNs; inhibitor 200 μM): 23.2; Adherent hPMNs to ICAM-1, fMLP, Mean (human primary PMNs; inhibitor 200 μM): 274.5; Adherent hPMNs to ICAM-1, Aβ oligo, Mean (human primary PMNs; inhibitor 200 μM): 258.6 |
| COc1cc(Nc2c(C#N)cnc3cc(OCCCN4CCN(C)CC4)c(OC)cc23)c(Cl)cc1Cl [Bosutinib, bosutinib] |  | 19.3 | 98.2 | 95.1 |  |
| C[C@@H]1CCN(C(=O)CC#N)C[C@@H]1N(C)c1ncnc2[nH]ccc12 [CP-690550] | can block |  |  |  | Adherent hPMNs to ICAM-1, n.t. (resting), Mean (human primary PMNs; inhibitor 200 μM): 22.1; Adherent hPMNs to ICAM-1, fMLP, Mean (human primary PMNs; inhibitor 200 μM): 209.6; Adherent hPMNs to ICAM-1, Aβ oligo, Mean (human primary PMNs; inhibitor 200 μM): 172.4 |
| c1ccc2c(c1)[I+]c1ccccc1-2 [DPI] |  |  |  |  | Effect on fMLP and Aβ1-42 ROS responses (human neutrophils [1]): suppressed |
| Cc1nc(Nc2ncc(C(=O)Nc3c(C)cccc3Cl)s2)cc(N2CCN(CCO)CC2)n1 [Dasatinib, dasatinib] |  |  |  |  | Adherent hPMNs to ICAM-1, n.t. (resting), Mean (human primary PMNs; inhibitor 20 μM): 24.9; Adherent hPMNs to ICAM-1, fMLP, Mean (human primary PMNs; inhibitor 20 μM): 230.8; Adherent hPMNs to ICAM-1, Aβ oligo, Mean (human primary PMNs; inhibitor 20 μM): 227.5 |
| NC(=O)c1cccc(-c2cc(Nc3ccc(OC(F)(F)F)cc3)ncn2)c1 [GNF-2] | can block | 25.2 | 144.2 | 115.5 |  |
| C=CC(=O)N1CCC[C@@H](n2nc(-c3ccc(Oc4ccccc4)cc3)c3c(N)ncnc32)C1 [Ibrutinib, ibrutinib] |  | 21.9 | 80.0 | 78.0 |  |
| Cc1ccc(NC(=O)c2ccc(CN3CCN(C)CC3)cc2)cc1Nc1nccc(-c2cccnc2)n1 [Imatinib, imatinib] | can block | 23.5 | 124.9 | 109.3 |  |
| Oc1cc(O)cc(/C=C/c2ccc(O)c(O)c2)c1 [Piceatannol, piceatannol] |  |  |  |  | Adherent hPMNs to ICAM-1, n.t. (resting), Mean (human primary PMNs; inhibitor 50 μM): 21.0; Adherent hPMNs to ICAM-1, fMLP, Mean (human primary PMNs; inhibitor 50 μM): 218.7; Adherent hPMNs to ICAM-1, Aβ oligo, Mean (human primary PMNs; inhibitor 50 μM): 276.1 |
| N#CC[C@H](C1CCCC1)n1cc(-c2ncnc3[nH]ccc23)cn1 [Ruxolitinib, ruxolitinib] |  | 17.0 | 243.8 | 244.5 |  |
| Cc1cnc(Nc2ccc(OCCN3CCCC3)cc2)nc1Nc1cccc(S(=O)(=O)NC(C)(C)C)c1 [TG101348] | can block | 20.1 | 147.2 | 134.8 |  |
| COc1cc2ncnc(Nc3ccc(O)c(Br)c3)c2cc1OC [WHI-P154] | can block | 23.5 | 207.8 | 218.8 |  |
| Fib Abeta: fibrillary form of Aβ1-42 peptide |  |  |  |  | Rapid adhesion to Fibrinogen (neutrophils): 171 ± 21.8 bound cells in 0.2 mm^2; Rapid adhesion to ICAM-1 (neutrophils): 457.3 ± 45.54 bound cells in 0.2 mm^2 |
| TNF-a |  |  |  |  | CD31 expression (endothelial cell marker) [2]: +; E-sel expression [2]: +; ICAM-1 expression [2]: +; P-sel expression [2]: +; VCAM-1 expression [2]: +; ROS generation (chemiluminescence) (mouse neutrophils; 1 min): 38 ± 20 counts per second; ROS generation (chemiluminescence) (mouse neutrophils; 2 min): 62 ± 21 counts per second; ROS generation (chemiluminescence) (mouse neutrophils; 3 min): 102 ± 28 counts per second; ROS generation (chemiluminescence) (mouse neutrophils; 4 min): 136 ± 26 counts per second; ROS generation (chemiluminescence) (mouse neutrophils; 5 min): 187 ± 14 counts per second |
| bocMLF | inhibits | 20.1 | 55.0 | 81.8 | Neutrophil adhesion to ICAM-1 after inhibitor pre-treatment (human neutrophils [3]; buffer (control), no stimulus): 17.3 ± 6.6 bound cells in 0.2 mm^2; Neutrophil adhesion to ICAM-1 after inhibitor pre-treatment (human neutrophils [3]; stimulated 2 minutes with oligomeric Aβ): 74.8 ± 25.5 bound cells in 0.2 mm^2; Neutrophil adhesion to ICAM-1 after inhibitor pre-treatment (human neutrophils [3]; stimulated with 0.1 μM fMLP): 69 ± 26.5 bound cells in 0.2 mm^2 |
